In patent publication US20240277677A1, “SALT FORM AND CRYSTAL FORM THEREOF OF SULFONYLUREA RING SUBSTITUTED COMPOUND” (priority 2022, published 2024):

System: Klebsiella pneumoniae ATCC-BAA 2470 (NDM+)
Assay: Drug efficacy in thigh muscle infection model in vivo (immunodeficient CD-1 female mice)
Conditions: for Average CFU of Mouse (bacterial load of thigh muscle tissue): end point 26 h
Description: 78 CD-1 female mice were divided into 26 cages, 3 mice per cage. The day of infection is counted as the 0 day.
150 mg/kg immunosuppressant cyclophosphamide was intraperitoneally injected on Day-4, and 100 mg/kg immunosuppressant cyclophosphamide was intraperitoneally injected again on Day-1 to obtain immunodeficient mice.
The strain Klebsiella pneumoniae ATCC-BAA 2470 (NDM+) was recovered on an MHA plate on Day-1. The recovered colonies were picked and dissolved in sterile saline to prepare a bacterial solution with a concentration of 5.95E+07 CFU/mL for use in mouse thigh muscle infection. The infection starting time was counted as 0 h, and 100μL of bacterial solution is injected into the thigh muscle of each mouse at 0 h, that is, the inoculation amount is 5.95E+06 CFU/mouse. 2 h after infection, the drugs were administered according to the experimental scheme. […] The mice in the 1st to 4th cage were administered at a total daily dose of 1600 mg/kg, the mice in the 5th to 8th cage were administered at a total daily dose of 480 mg/kg, the mice in the 9th to 12th cage were administered at a total daily dose of 160 mg/kg, the mice in the 13th to 16th cage were administered at a total daily dose of 48 mg/kg, the mice in the 17th to 20th cage were administered at a total daily dose of 16 mg/kg, the mice in the 21th to 24th cage were administered at a total daily dose of 4.8 mg/kg, and each dosage group was administered separately in four different dosage dividing manners, which were q3 h, q6 h, q12 h and q24 h separately. • (3) 26 h after infection: The endpoint of the experiment was at 26 h after infection, the thigh muscle tissue of the mice of the 1st to 26th cage was taken and placed in 10 mL sterile saline, the tissue was homogenized by a homogenizer, and the homogenate was dotted on a plate with gradient dilution, two duplications for each mouse. The bacterial load of the thigh muscle tissue of the mice was counted, and for the experimental results see Table 15.

In the case of `NC[C@@H]1CN(C[C@@H]2[C@H](NC(=O)/C(=N\OC3(C(=O)O)CC3)c3csc(N)n3)C(=O)N2S(=O)O)S(=O)(=O)N1` (stereo in doubt), the “Average CFU of Mouse (bacterial load of thigh muscle tissue)” value (shortened to “Average CFU of Mouse”) (group 1: total daily dose 1600 mg/kg, single dose 60 mg/kg, q3h s.c.) is reported as 2.18E+06 CFU/Mouse, the “Average CFU of Mouse” value (group 2: total daily dose 1600 mg/kg, single dose 400 mg/kg, q6h s.c.) is reported as 2.45E+06 CFU/Mouse and the “Average CFU of Mouse” value (group 3: total daily dose 1600 mg/kg, single dose 800 mg/kg, q12h s.c.) is reported as 3.80E+08 CFU/Mouse. The “Average CFU of Mouse” value (group 4: total daily dose 1600 mg/kg, single dose 1600 mg/kg, q24h s.c.) was 9.02E+09 CFU/Mouse, the “Average CFU of Mouse” value (group 5: total daily dose 480 mg/kg, single dose 60 mg/kg, q3h s.c.) was 2.20E+06 CFU/Mouse and the “Average CFU of Mouse” value (group 6: total daily dose 480 mg/kg, single dose 120 mg/kg, q6h s.c.) was 2.18E+08 CFU/Mouse. For the same compound, the “Average CFU of Mouse” value (group 7: total daily dose 480 mg/kg, single dose 240 mg/kg, q12h s.c.) was 2.88E+09 CFU/Mouse, the “Average CFU of Mouse” value (group 8: total daily dose 480 mg/kg, single dose 480 mg/kg, q24h s.c.) was 8.73E+09 CFU/Mouse and the “Average CFU of Mouse” value (group 9: total daily dose 160 mg/kg, single dose 20 mg/kg, q3h s.c.) was 2.10E+06 CFU/Mouse. The “Average CFU of Mouse” value (group 10: total daily dose 160 mg/kg, single dose 40 mg/kg, q6h s.c.) was 4.67E+08 CFU/Mouse, the “Average CFU of Mouse” value (group 11: total daily dose 160 mg/kg, single dose 80 mg/kg, q12h s.c.) was 7.88E+09 CFU/Mouse and the “Average CFU of Mouse” value (group 12: total daily dose 160 mg/kg, single dose 160 mg/kg, q24h s.c.) was 1.22E+10 CFU/Mouse. The “Average CFU of Mouse” value (group 13: total daily dose 48 mg/kg, single dose 6 mg/kg, q3h s.c.) was 4.07E+06 CFU/Mouse, the “Average CFU of Mouse” value (group 14: total daily dose 48 mg/kg, single dose 12 mg/kg, q6h s.c.) was 1.57E+09 CFU/Mouse and the “Average CFU of Mouse” value (group 15: total daily dose 48 mg/kg, single dose 24 mg/kg, q12h s.c.) was 8.70E+09 CFU/Mouse. The “Average CFU of Mouse” value (group 16: total daily dose 48 mg/kg, single dose 48 mg/kg, q24h s.c.) was 1.32E+10 CFU/Mouse, the “Average CFU of Mouse” value (group 17: total daily dose 16 mg/kg, single dose 2 mg/kg, q3h s.c.) was 7.77E+07 CFU/Mouse and the “Average CFU of Mouse” value (group 18: total daily dose 16 mg/kg, single dose 4 mg/kg, q6h s.c.) was 2.92E+09 CFU/Mouse. For the same compound, the “Average CFU of Mouse” value (group 19: total daily dose 16 mg/kg, single dose 8 mg/kg, q12h s.c.) was 6.93E+09 CFU/Mouse, the “Average CFU of Mouse” value (group 20: total daily dose 16 mg/kg, single dose 16 mg/kg, q24h s.c.) was 1.44E+10 CFU/Mouse and the “Average CFU of Mouse” value (group 21: total daily dose 4.8 mg/kg, single dose 0.6 mg/kg, q3h s.c.) was 7.22E+08 CFU/Mouse. For the same compound, the “Average CFU of Mouse” value (group 22: total daily dose 4.8 mg/kg, single dose 1.2 mg/kg, q6h s.c.) was 4.55E+09 CFU/Mouse, the “Average CFU of Mouse” value (group 23: total daily dose 4.8 mg/kg, single dose 2.4 mg/kg, q12h s.c.) was 7.60E+09 CFU/Mouse and the “Average CFU of Mouse” value (group 24: total daily dose 4.8 mg/kg, single dose 4.8 mg/kg, q24h s.c.) was 1.27E+10 CFU/Mouse. The “Antibacterial effect in vivo (conclusion)” value (mouse thigh muscle infection, subcutaneous, 26 h after infection) was “significant antibacterial effect in vivo”, the “Effect of shortening the administration interval (conclusion)” value (same daily dose, q3 h, q6 h, q12 h, q24 h) was “significantly improve the efficacy in vivo” and the “Dose-effect relationship (conclusion)” value (total daily dose 4.8 to 1600 mg/kg) was “significant”.
